Converted amounts (≈) assume the structure as drawn.
Experiments:
[1] = test system: lymphocytic leukemia cells of the strain P388 (PS tumors); test: Survival of mice implanted with lymphocytic leukemia P388 (NCI Protocol 1.200); details: mouse, in vivo
Method: The effectiveness of alkaloid compounds against lymphocytic leukemia cells of the strain P388 (PS tumors) implanted in mice is another method of determining activity. These assays are made according to the National Cancer Institute Protocol 1.200 described in Geran et al. referred to above. […] Starting 24 hr. after the tumor implantation, previously determined dosages of each compound were injected intraperitoneally once a day for 9 days. Survival time of treated leukemic mice is compared to that of untreated leukemic mice (T/C×100). A T/C value of 100% indicated no activity.
^2 All mice were male, CD2 F1.
^3 The injection vehicle was saline.
^4 One intraperitoneal injection per day for 9 days.

KB Cell = KB Cell Culture Screen (NCI Protocol 1.600); assay type: cell-based
Text: The chemotherapeutic activities of the fractions obtained in the isolation procedure may be determined by a KB Cell Culture Screen in accordance with the National Cancer Institute Protocol 1.600 [Geran et al., Cancer Chemother.

With `O=C1NC(=O)[C@@]2(CC[C@@H](O)C2)c2ccncc21` (relative stereo) [sesbanine, trans-3-hydroxyspiro[cyclopentane-1,4'(1'H)[2,7]naphthyridine]-1',3'(2'H)-dione] the “activity against leukemia in animals (in words)” value [1] was “potent activity against leukemia in animals”, the IC50 (KB Cell; Homo sapiens, KB, 72 h, 3 days after drug addition, active if ED 50 ≤30 μg./ml., read-out: ED 50 (dose that inhibits growth to 50% of control growth)) was 0.047 µg/mL (≈ 0.202 µM) and the “activity of fractions during isolation (in words)” value (KB Cell; among fractions of the respective separation step, Example 1) was “the most active”.

— patent US4200639A, “Sesbanine and the use thereof in treating leukemic tumors” (The United States of America as represented by the …, priority 1979, dated 1980)
